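Here, GI50 denotes the concentration required for 50% inhibition of growth. At the TGI there is no net growth.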
What was measured:
Test in all cases: DTP human tumour cell line panel, 384-well format
786-0 renal = test system: 786-0 renal
A498 renal = test system: A498 renal
A549 NSCLC = test system: A549 NSCLC
CAKI-1 renal = test system: CAKI-1 renal
COLO 205 colon = test system: COLO 205 colon
DU-145 prostate = test system: DU-145 prostate
EKVX NSCLC = test system: EKVX NSCLC
HCC-2998 colon = test system: HCC-2998 colon
HCT-116 colon = test system: HCT-116 colon
HCT-15 colon = test system: HCT-15 colon
HL-60(TB) leukemia = test system: HL-60(TB) leukemia
HOP-62 NSCLC = test system: HOP-62 NSCLC
HOP-92 NSCLC = test system: HOP-92 NSCLC
HS 578T breast = test system: HS 578T breast
HT29 colon = test system: HT29 colon
K-562 leukemia = test system: K-562 leukemia
KM12 colon = test system: KM12 colon
LOX IMVI melanoma = test system: LOX IMVI melanoma
M14 melanoma = test system: M14 melanoma
MALME-3M melanoma = test system: MALME-3M melanoma
MCF7 breast = test system: MCF7 breast
MDA-MB-231 breast = test system: MDA-MB-231 breast
MDA-MB-435 melanoma = test system: MDA-MB-435 melanoma
MDA-MB-468 breast = test system: MDA-MB-468 breast
MOLT-4 leukemia = test system: MOLT-4 leukemia
NCI-H23 lung = test system: NCI-H23 lung
NCI-H322M lung = test system: NCI-H322M lung
NCI-H460 NSCLC = test system: NCI-H460 NSCLC
NCI/ADR-RES ovarian = test system: NCI/ADR-RES ovarian
OVCAR-4 ovarian = test system: OVCAR-4 ovarian
OVCAR-5 ovarian = test system: OVCAR-5 ovarian
OVCAR-8 ovarian = test system: OVCAR-8 ovarian
RXF 393 renal = test system: RXF 393 renal
SF-295 CNS = test system: SF-295 CNS
SF-539 CNS = test system: SF-539 CNS
SK-MEL-2 melanoma = test system: SK-MEL-2 melanoma
SK-MEL-28 melanoma = test system: SK-MEL-28 melanoma
SK-MEL-5 melanoma = test system: SK-MEL-5 melanoma
SK-OV-3 ovarian = test system: SK-OV-3 ovarian
SN12C renal = test system: SN12C renal
SNB-19 CNS = test system: SNB-19 CNS
SW-620 colon = test system: SW-620 colon
TK-10 renal = test system: TK-10 renal
U251 glioblastoma = test system: U251 glioblastoma
UACC-257 melanoma = test system: UACC-257 melanoma
UACC-62 melanoma = test system: UACC-62 melanoma
UO-31 renal = test system: UO-31 renal

N#Cc1c(N)nc(N)nc1N[C@H](c1nc2c(F)ccc(Cl)c2c(=O)n1-c1cccnc1)C1CC1 showed a GI50 ([…]-0 renal) of 3.51 µM, a TGI (786-0 renal) of 24.4 µM and a GI50 (A498 renal) of 0.445 µM. For the same compound, the TGI (A498 renal) was 3.11 µM, the GI50 (A549 NSCLC) was 9.47 µM and the TGI (A549 NSCLC) was 30.1 µM. The GI50 (CAKI-1 renal) was 2.3 µM, the TGI (CAKI-1 renal) was greater than 100 µM and the GI50 (COLO 205 colon) was 19.8 µM. It also gave a TGI (COLO 205 colon) greater than 91.6 µM, a GI50 (DU-145 prostate) of 13.4 µM and a TGI (DU-145 prostate) greater than 85.1 µM. The GI50 (EKVX NSCLC) was 2.63 µM, the TGI (EKVX NSCLC) was 17.6 µM and the GI50 (HCC-2998 colon) was 11 µM. It also gave a TGI (HCC-2998 colon) of 24.5 µM, a GI50 (HCT-116 colon) of 16.1 µM and a TGI (HCT-116 colon) of 35.9 µM. It also gave a GI50 (HCT-15 colon) of 16.1 µM, a TGI (HCT-15 colon) of 44.9 µM and a GI50 (HL-60(TB) leukemia) of 1.13 µM. It also gave a TGI (HL-60(TB) leukemia) of 7.85 µM, a GI50 (HOP-62 NSCLC) of 17.9 µM and a TGI (HOP-62 NSCLC) greater than 65.3 µM. The GI50 (HOP-92 NSCLC) was 0.677 µM, the TGI (HOP-92 NSCLC) was 14.3 µM and the GI50 (HS 578T breast) was 1.79 µM. The TGI (HS 578T breast) was 15.4 µM, the GI50 (HT29 colon) was 13.4 µM and the TGI (HT29 colon) was 42 µM. It also gave a GI50 (K-562 leukemia) of 17.8 µM, a TGI (K-562 leukemia) of 38.1 µM and a GI50 (KM12 colon) of 17.8 µM. It also gave a TGI (KM12 colon) of 52.3 µM, a GI50 (LOX IMVI melanoma) of 5.13 µM and a TGI (LOX IMVI melanoma) of 18.6 µM. The GI50 (M14 melanoma) was 79 µM, the TGI (M14 melanoma) was greater than 100 µM and the GI50 (MALME-3M melanoma) was greater than 39.9 µM. It also gave a TGI (MALME-3M melanoma) greater than 100 µM, a GI50 (MCF7 breast) of 2.73 µM and a TGI (MCF7 breast) greater than 100 µM. The GI50 (MDA-MB-231 breast) was 9.59 µM, the TGI (MDA-MB-231 breast) was 34.2 µM and the GI50 (MDA-MB-435 melanoma) was 35.4 µM. The TGI (MDA-MB-435 melanoma) was greater than 100 µM, the GI50 (MDA-MB-468 breast) was 0.912 µM and the TGI (MDA-MB-468 breast) was 5.94 µM. It also gave a GI50 (MOLT-4 leukemia) of 1.54 µM, a TGI (MOLT-4 leukemia) of 3.94 µM and a GI50 (NCI-H23 lung) of 15.3 µM. The TGI (NCI-H23 lung) was 54.8 µM, the GI50 (NCI-H322M lung) was 14.9 µM and the TGI (NCI-H322M lung) was greater than 80.1 µM. The GI50 (NCI-H460 NSCLC) was 5.48 µM, the TGI (NCI-H460 NSCLC) was greater than 100 µM and the GI50 (NCI/ADR-RES ovarian) was 34.2 µM. The TGI (NCI/ADR-RES ovarian) was greater than 100 µM, the GI50 (OVCAR-4 ovarian) was 10.8 µM and the TGI (OVCAR-4 ovarian) was 52.7 µM. For the same compound, the GI50 (OVCAR-5 ovarian) was 9.12 µM, the TGI (OVCAR-5 ovarian) was 43.1 µM and the GI50 (OVCAR-8 ovarian) was 13.4 µM. The TGI (OVCAR-8 ovarian) was 32.7 µM, the GI50 (RXF 393 renal) was 0.2 µM and the TGI (RXF 393 renal) was 0.936 µM. For the same compound, the GI50 (SF-295 CNS) was 2.37 µM, the TGI (SF-295 CNS) was 18.4 µM and the GI50 (SF-539 CNS) was 5.96 µM. The TGI (SF-539 CNS) was 44.5 µM, the GI50 (SK-MEL-2 melanoma) was 17.3 µM and the TGI (SK-MEL-2 melanoma) was 39.3 µM. It also gave a GI50 (SK-MEL-28 melanoma) of 3.88 µM, a TGI (SK-MEL-28 melanoma) greater than 100 µM and a GI50 (SK-MEL-5 melanoma) of 12.6 µM. The TGI (SK-MEL-5 melanoma) was 34.3 µM, the GI50 (SK-OV-3 ovarian) was 4.36 µM and the TGI (SK-OV-3 ovarian) was 37.5 µM. For the same compound, the GI50 (SN12C renal) was 4.29 µM, the TGI (SN12C renal) was greater than 100 µM and the GI50 (SNB-19 CNS) was 15 µM. The TGI (SNB-19 CNS) was 31.8 µM, the GI50 (SW-620 colon) was 11.9 µM and the TGI (SW-620 colon) was 36.3 µM. The GI50 (TK-10 renal) was 4.55 µM, the TGI (TK-10 renal) was 29.1 µM and the GI50 (U251 glioblastoma) was 18.3 µM. The TGI (U251 glioblastoma) was 61.9 µM, the GI50 (UACC-257 melanoma) was 19.5 µM and the TGI (UACC-257 melanoma) was greater than 100 µM. It also gave a GI50 (UACC-62 melanoma) of 3.23 µM, a TGI (UACC-62 melanoma) of 58.9 µM and a GI50 (UO-31 renal) of 2.64 µM. It also gave a TGI (UO-31 renal) of 8.87 µM.

Reference: PubChem BioAssay (NCI)
